Test system: 855422-203-R-J1-PDC complex spheroid growth
Experiment: Anticancer human tumor 855422-203-R-J1-PDC patient-derived bladder carcinoma cell line growth inhibition [AhR]
Settings: for IC50: curve of first compound; for viability, T/C: stronger effect = lower value
Source text: Multicellular complex tumor spheroid response to aryl hydrocarbon receptor antagonists in combination with a variety of drugs and investigational agents in selected tumor cell lines
The current study was undertaken to assess response to aryl hydrocarbon receptor antagonists in combination with standard-of-care drugs and investigational agents in solid tumor complex spheroid models. Complex spheroids include a stromal component modeled by human endothelial cells (HUVEC) and fibroblasts modeled by human mesenchymal stem cells (MSCs). The concentration ranges selected for each drug and investigational agent were based upon clinically achievable concentrations if the clinical Cmax of the agent was known.
Compounds. The drugs and investigational agents: BAY 2416964 (NSC825713), GNF351 (NSC835774), CH-223191 (NSC835775), CPI-455 (NSC825282), aza-TdCyd (NSC777586), decitabine (NSC127716), belinostat (NSC758774), entinostat (NSC756642), pevonedistat (NSC761192), tazemetostat (NSC777109), talazoparib (NSC765396), olaparib (NSC753686), selinexor (NSC780203), nedisertib (M3814, NSC802822), bortezomib (NSC756655), venetoclax (NSC766270), doxorubicin (NSC123127), elimusertib (BAY189344, NSC800525), ceralasertib (AZD6738, NSC777638), TAK-243 (NSC785004), alisertib (NSC759677), etoposide (NSC141540), topotecan (NSC609699), eribulin (NSC707389), gemcitabine (NSC613327), carboplatin (NSC241240), cisplatin (NSC119875), and SN-38 (NSC673596) were obtained from the National Cancer Institute (NCI) Developmental Therapeutics Program Chemical Repository (32). The FDA-approved anticancer drug set is available from the Developmental Therapeutics Program at https://dtp.cancer.gov/organization/dscb/obtaining/available plates.htm. […] The stock solutions were prepared in dimethyl sulfoxide (DMSO, Sigma-Aldrich, St. Louis, MO, cat. D2650), except for the platinum compounds which were prepared in saline (Quality Biological, Gaithersburg, MD, cat. 114-055-101), at 800-fold the tested concentration and stored at -70 degrees C prior to their use. All drugs and investigational agents were tested over a range starting from a high concentration at or near the clinical Cmax and decreasing in half-log increments. If the clinical Cmax for an agent had not been determined, the highest concentration tested was 10 microM (Table 1).
Cell Culture. All cells were maintained in an incubator at 37 degrees C and 5% CO2 with 95% humidity. The PDC lines were cultured according to standard operating procedures established by the NCI PDMR (https://pdmr.cancer.gov). Briefly, all PDCs were thawed and cultured in Matrigel-coated flasks prepared with a working solution of 1X Ham's F-12 nutrient mix, without supplementation (Invitrogen, Waltham, MA, cat. 11765054), 100 U/mL penicillin-streptomycin (Invitrogen, cat. 15140122), and 2.5% Matrigel (Corning Inc., Corning, NY, cat. 354248) for the first three passages. All PDCs were cultured in complete DMEM/F-12 media containing advanced DMEM/F-12 (Invitrogen, cat. 12634028), 4.9% defined fetal bovine serum, heat inactivated (HyClone Laboratories Inc., Logan, UT, cat. SH30070.03HI), 389 ng/mL hydrocortisone (Sigma-Aldrich, cat. H4001), 9.7 ng/mL human EGF recombinant protein (Invitrogen, cat. PHG0313), 23.4 microg/mL adenine (Sigma-Aldrich, cat. A2786), 97.3 U/mL penicillin-streptomycin (Invitrogen, cat. 15140122), 1.9 mM L-glutamine (Invitrogen, cat. 25030081), and 9.7 microM Y-27632 dihydrochloride (Tocris Bioscience, Bristol, United Kingdom, cat. 1254). The PDCs were cultured in complete DMEM/F12 media without 10 microM Y-27632 dihydrochloride for at least two passages prior to the screen. The established cell lines NCI-H1341 and […] were cultured in DMEM/F-12, HEPES (Invitrogen, cat. 11330032), 5% defined fetal bovine serum (HyClone Laboratories Inc., cat. SH30070.03), ITS premix universal culture supplement [insulin (5 microg/mL), transferrin (5 microg/mL), and selenious acid (5 ng/mL)] […]

[1] = second compound 0.1 µM, first compound 0.00949 µM
[2] = second compound 0.1 µM, first compound 0.03 µM
[3] = second compound 0.1 µM, first compound 0.0949 µM
[4] = second compound 0.1 µM, first compound 0.3 µM
[5] = second compound 0.1 µM, first compound 0.949 µM
[6] = second compound 0.1 µM, first compound 3 µM
[7] = second compound 0.316 µM, first compound 0.00949 µM
[8] = second compound 0.316 µM, first compound 0.03 µM
[9] = second compound 0.316 µM, first compound 0.0949 µM
[10] = second compound 0.316 µM, first compound 0.3 µM
[11] = second compound 0.316 µM, first compound 0.949 µM
[12] = second compound 0.316 µM, first compound 3 µM
[13] = second compound 1 µM, first compound 0.00949 µM
[14] = second compound 1 µM, first compound 0.03 µM
[15] = second compound 1 µM, first compound 0.0949 µM
[16] = second compound 1 µM, first compound 0.3 µM
[17] = second compound 1 µM, first compound 0.949 µM
[18] = second compound 1 µM, first compound 3 µM
[19] = second compound 3.16 µM, first compound 0.00949 µM
[20] = second compound 3.16 µM, first compound 0.03 µM
[21] = second compound 3.16 µM, first compound 0.0949 µM
[22] = second compound 3.16 µM, first compound 0.3 µM
[23] = second compound 3.16 µM, first compound 0.949 µM
[24] = second compound 3.16 µM, first compound 3 µM
[25] = second compound 10 µM, first compound 0.00949 µM
[26] = second compound 10 µM, first compound 0.03 µM
[27] = second compound 10 µM, first compound 0.0949 µM
[28] = second compound 10 µM, first compound 0.3 µM
[29] = second compound 10 µM, first compound 0.949 µM
[30] = second compound 10 µM, first compound 3 µM
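Note: spheroids exposed to agents for seven days before readout.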
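Throughout, for viability, T/C: percent of DMSO vehicle control luminescence viability.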

Nc1ncn(C2CC(O)C(CO)O2)c(=O)n1 (stereo not given) + Cc1ccccc1N=Nc1ccc(NC(=O)c2ccnn2C)c(C)c1
IC50 (second compound 0.1 µM): > 1000 nM | IC50 (second compound 0.316 µM): > 1000 nM | IC50 (second compound 1 µM): > 1000 nM | IC50 (second compound 3.16 µM): > 1000 nM | IC50 (second compound 10 µM): > 1000 nM | viability, T/C (second compound 0.1 µM, first compound 0.00316 µM): 94.4% | viability, T/C (second compound 0.1 µM, first compound 0.01 µM): 98.1% | viability, T/C (second compound 0.1 µM, first compound 0.0316 µM): 93.4% | viability, T/C (second compound 0.1 µM, first compound 0.1 µM): 98.2% | viability, T/C (second compound 0.1 µM, first compound 0.316 µM): 93.5% | viability, T/C (second compound 0.1 µM, first compound 1 µM): 86.4% | viability, T/C (second compound 0.316 µM, first compound 0.00316 µM): 102% | viability, T/C (second compound 0.316 µM, first compound 0.01 µM): 104% | viability, T/C (second compound 0.316 µM, first compound 0.0316 µM): 103% | viability, T/C (second compound 0.316 µM, first compound 0.1 µM): 94.4% | viability, T/C (second compound 0.316 µM, first compound 0.316 µM): 93% | viability, T/C (second compound 0.316 µM, first compound 1 µM): 82.8% | viability, T/C (second compound 1 µM, first compound 0.00316 µM): 106% | viability, T/C (second compound 1 µM, first compound 0.01 µM): 98.5% | viability, T/C (second compound 1 µM, first compound 0.0316 µM): 94% | viability, T/C (second compound 1 µM, first compound 0.1 µM): 93% | viability, T/C (second compound 1 µM, first compound 0.316 µM): 87.2% | viability, T/C (second compound 1 µM, first compound 1 µM): 89% | viability, T/C (second compound 3.16 µM, first compound 0.00316 µM): 97.4% | viability, T/C (second compound 3.16 µM, first compound 0.01 µM): 96.3% | viability, T/C (second compound 3.16 µM, first compound 0.0316 µM): 94.9% | viability, T/C (second compound 3.16 µM, first compound 0.1 µM): 92.9% | viability, T/C (second compound 3.16 µM, first compound 0.316 µM): 85.7% | viability, T/C (second compound 3.16 µM, first compound 1 µM): 83.5% | viability, T/C (second compound 10 µM, first compound 0.00316 µM): 84.7% | viability, T/C (second compound 10 µM, first compound 0.01 µM): 82.1% | viability, T/C (second compound 10 µM, first compound 0.0316 µM): 84.3% | viability, T/C (second compound 10 µM, first compound 0.1 µM): 84.3% | viability, T/C (second compound 10 µM, first compound 0.316 µM): 78% | viability, T/C (second compound 10 µM, first compound 1 µM): 76%

O=C(C=Cn1cnc(-c2cc(C(F)(F)F)cc(C(F)(F)F)c2)n1)NNc1cnccn1 + CC(CO)NC(=O)c1cc(-c2ccc(Cl)cc2)nn(-c2cnn(C)c2)c1=O
IC50 (second compound 0.1 µM): 409 nM | IC50 (second compound 0.316 µM): 279 nM | IC50 (second compound 1 µM): 326 nM | IC50 (second compound 3.16 µM): 274 nM | IC50 (second compound 10 µM): 260 nM | viability, T/C [1]: 106% | viability, T/C [2]: 124% | viability, T/C [3]: 141% | viability, T/C [4]: 55.2% | viability, T/C [5]: 40.1% | viability, T/C [6]: 32.1% | viability, T/C [7]: 112% | viability, T/C [8]: 125% | viability, T/C [9]: 149% | viability, T/C [10]: 44.6% | viability, T/C [11]: 36.8% | viability, T/C [12]: 33% | viability, T/C [13]: 121% | viability, T/C [14]: 136% | viability, T/C [15]: 159% | viability, T/C [16]: 51.1% | viability, T/C [17]: 37.8% | viability, T/C [18]: 31.1% | viability, T/C [19]: 108% | viability, T/C [20]: 123% | viability, T/C [21]: 152% | viability, T/C [22]: 43.4% | viability, T/C [23]: 41.1% | viability, T/C [24]: 28.6% | viability, T/C [25]: 100% | viability, T/C [26]: 134% | viability, T/C [27]: 144% | viability, T/C [28]: 39.2% | viability, T/C [29]: 33.6% | viability, T/C [30]: 31.1%

O=C(C=Cn1cnc(-c2cc(C(F)(F)F)cc(C(F)(F)F)c2)n1)NNc1cnccn1 + Cc1ccccc1N=Nc1ccc(NC(=O)c2ccnn2C)c(C)c1
IC50 (second compound 0.1 µM): > 3000 nM | IC50 (second compound 0.316 µM): > 3000 nM | IC50 (second compound 1 µM): > 3000 nM | IC50 (second compound 3.16 µM): 706 nM | IC50 (second compound 10 µM): 726 nM | viability, T/C [1]: 108% | viability, T/C [2]: 113% | viability, T/C [3]: 143% | viability, T/C [4]: 93.1% | viability, T/C [5]: 53.9% | viability, T/C [6]: 50.1% | viability, T/C [7]: 109% | viability, T/C [8]: 118% | viability, T/C [9]: 151% | viability, T/C [10]: 83.7% | viability, T/C [11]: 57.6% | viability, T/C [12]: 48% | viability, T/C [13]: 109% | viability, T/C [14]: 136% | viability, T/C [15]: 179% | viability, T/C [16]: 78.5% | viability, T/C [17]: 54.2% | viability, T/C [18]: 48% | viability, T/C [19]: 111% | viability, T/C [20]: 107% | viability, T/C [21]: 154% | viability, T/C [22]: 69.8% | viability, T/C [23]: 48.5% | viability, T/C [24]: 37.8% | viability, T/C [25]: 85.8% | viability, T/C [26]: 101% | viability, T/C [27]: 112% | viability, T/C [28]: 58.2% | viability, T/C [29]: 49.8% | viability, T/C [30]: 45.4%
